Reference: US20080279829A1, “Phenyl-(4-Phenyl-Pyrimidin-2-Yl)-Amines For Enhancing Immunotolerance” (priority 2005, published 2008)

Test system: BALB/c diabetic female mice with C57BI/6 islet allograft
Experiment: cellular therapy with in vitro TEST COMPOUND-treated BM-DC in islet allograft transplantation
Format: in vivo
Conditions: injected i.v. one day before transplantation
Experimental: To further investigate the effect of TEST COMPOUND on murine DCs bone marrow cells from BALB/c mice are differentiated with GM-CSF into bone marrow derived DCs (BM-DCs) in the presence or absence of TEST COMPOUND (20 nM). BM-DC are left immature or activated with LPS.
BM-DC are injected (3×105, i.v.) into BALB/c diabetic female mice one day before C57BI/6 islet allograft transplantation. Graft survival is monitored by weekly measurement of blood glucose level (*two-tailed t test).

FC(F)(F)c1ccc(Nc2nccc(-c3cccc(Cl)c3)n2)cc1 [Compound B, N-[4-(3-Chloro-phenyl)-pyrimidin-2-yl]-N-(4-trifluoromethyl-phenyl)-amine]
islets allograft acceptance after injection of LPS-activated (mature) treated recipient type BM-DC: significantly prevents islet graft rejection
